Source: patent US20240317780A1, “RADIOPHARMACEUTICAL SOMATOSTATIN RECEPTOR LIGANDS AND PRECURSORS THEREOF” (Technische Universität München, priority 2021, published 2024)
Where a SMILES comes first, the peptide text is derived from it. Bridges are numbered along the chain shown (N, C = ends). [ ]: non-standard residue; d: D form. The star is where a group is joined. ξ: configuration not given here. X1 = CC(C)(C)[Si](F)(c1ccc(C[N+](C)(C)CC(=O)*)cc1)C(C)(C)C; DO3AM = NC(=O)CN1CCN(CC(N)=O)CCN(CC(=O)*)CCN(CC(N)=O)CC1; ξW = NC(Cc1c[nH]c2ccccc12)C(=O)O; dDap = NC[C@@H](N)C(=O)O; ξF = NC(Cc1ccccc1)C(=O)O; ξD = NC(CC(=O)O)C(=O)O; ξC = NC(CS)C(=O)O

How the values were obtained:
[1] = biological target: HSA (Homo sapiens, UniProt P02768); test: HSA binding by RIAC method (gel filtration, apparent molecular weight); assay type: in vitro ADME; settings: HSA binding as apparent molecular weight, 700 μM HSA in PBS mobile phase
Protocol: A gel filtration column Superdex 75 Increase 10/300 GL (GE Healthcare, Uppsala, Sweden) was beforehand calibrated following the producer's recommendations with a commercially available gel filtration calibration kit (GE Healthcare, Buckinghamshire, UK) comprising conalbumin (MW: 75 kDa), ovalbumin (44 kDa), carbonic anhydrase (29 kDa), ribonuclease A (13.7 kDa) and aprotinin (6.5 kDa) as reference proteins of known molecular weight. AMSEC experiments were conducted using a constant flow rate of 0.8 mL/min at rt. A solution of HSA in PBS at physiological concentration (700 μM) was used as the mobile phase. SST2 ligands were labelled as described with molar activities of 10-20 GBq/μmol. Probes of 1.0 MBq of the radioligand were injected directly from the labelling solution. HSA binding was expressed as an apparent molecular weight MW calculated from the retention time of the radioligand using the determined calibration curve.
For evaluation, experimentally determined retention times tR are first converted into elution volumes Ve by multiplying with the flow rate and thereafter converted into partition coefficients Kav following the equation
where V0 is the column void volume (8.027 mL) and Vc is the geometric column volume (24 mL). Using the equation given by the trend line plot of the column calibration
the apparent molecular weight MW is calculated as […]

[2] = Octanol-water distribution coefficient (logD pH 7.4) of the labeled tracer; assay type: physicochemical; settings: n-octanol/PBS pH 7.4, room temperature
Procedure, shortened: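 About 1 MBq tracer partitioned in 1:1 PBS pH 7.4/n-octanol, mixed 3 min at room temperature, centrifuged 15000 g for 5 min. Both layers counted by gamma counter; at least six repeats.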

[3] = biological target: T1, SST2 (Homo sapiens, UniProt P30874); test: Determination of IC50: competitive binding against [125I]TOC on SST2-transfected CHO cells; settings: [125I]TOC reference radioligand, 60 min room temperature
T1 construct: expressed in transfected cells; host or cells: CHO (Chinese hamster ovary) cells
T1 sequence (P30874 whole entry, species assumed): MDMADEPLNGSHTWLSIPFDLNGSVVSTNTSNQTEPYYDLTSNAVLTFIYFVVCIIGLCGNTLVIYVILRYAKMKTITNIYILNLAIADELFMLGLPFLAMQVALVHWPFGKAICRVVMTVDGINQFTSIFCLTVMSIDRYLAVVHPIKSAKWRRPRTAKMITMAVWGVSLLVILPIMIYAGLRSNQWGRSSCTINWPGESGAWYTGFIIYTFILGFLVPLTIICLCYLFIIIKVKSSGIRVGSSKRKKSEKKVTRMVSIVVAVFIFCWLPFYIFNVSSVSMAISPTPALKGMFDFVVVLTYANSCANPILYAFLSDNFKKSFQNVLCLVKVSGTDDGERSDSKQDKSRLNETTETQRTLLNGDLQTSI

Chain of HSA (P02768 25-609): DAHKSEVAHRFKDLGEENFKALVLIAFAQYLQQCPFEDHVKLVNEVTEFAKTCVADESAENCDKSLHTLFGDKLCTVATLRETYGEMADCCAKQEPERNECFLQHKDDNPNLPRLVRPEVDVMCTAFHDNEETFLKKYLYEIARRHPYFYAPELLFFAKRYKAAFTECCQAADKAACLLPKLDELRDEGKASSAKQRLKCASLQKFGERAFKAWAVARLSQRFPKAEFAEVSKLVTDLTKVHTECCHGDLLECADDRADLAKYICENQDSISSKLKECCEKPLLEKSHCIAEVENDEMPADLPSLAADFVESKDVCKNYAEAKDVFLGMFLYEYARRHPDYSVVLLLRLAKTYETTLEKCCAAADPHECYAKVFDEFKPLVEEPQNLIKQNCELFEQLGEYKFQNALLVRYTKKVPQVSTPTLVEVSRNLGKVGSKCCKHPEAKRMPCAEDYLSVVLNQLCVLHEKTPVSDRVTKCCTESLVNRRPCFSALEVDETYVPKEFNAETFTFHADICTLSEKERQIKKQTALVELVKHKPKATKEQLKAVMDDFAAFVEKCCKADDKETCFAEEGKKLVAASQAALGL

| SMILES | HSA [1] | LogDpH=7.4 [2] | IC50 [3] |
| --- | --- | --- | --- |
| C[C@@H](O)[C@H](NC(=O)C1CSSCC(NC(=O)C(Cc2ccccc2)NC(=O)CNC(=O)C(CC(=O)O)NC(=O)[C@@H](CC(=O)O)NC(=O)C(CNC(=O)CN2CCN(CC(=O)O)CCN(CC(=O)O)CCN(CC(=O)O)CC2)NC(=O)[C@@H](CN)NC(=O)c2ccc([Si](F)(C(C)(C)C)C(C)(C)C)cc2)C(=O)N[C@@H](Cc2ccc(O)cc2)C(=O)NC(Cc2c[nH]c3ccccc23)C(=O)N[C@@H](CCCCN)C(=O)N[C@@H]([C@@H](C)O)C(=O)N1)C(=O)O (some centres unmarked) (natGa complex, metal not drawn) [[Ga]39] | 24.96 kDa | −2.20 ± 0.05 | 14.9 ± 1.22 nM |
| C[C@@H](O)[C@H](NC(=O)C1CSSCC(NC(=O)C(Cc2ccccc2)NC(=O)[C@@H](CC(N)=O)NC(=O)C(CC(N)=O)NC(=O)[C@@H](CC(=O)O)NC(=O)C(CC(=O)O)NC(=O)[C@@H](CNC(=O)CN2CCN(CC(=O)O)CCN(CC(=O)O)CCN(CC(=O)O)CC2)NC(=O)C(CN)NC(=O)c2ccc([Si](F)(C(C)(C)C)C(C)(C)C)cc2)C(=O)N[C@@H](Cc2ccc(O)cc2)C(=O)NC(Cc2c[nH]c3ccccc23)C(=O)N[C@@H](CCCCN)C(=O)N[C@@H]([C@@H](C)O)C(=O)N1)C(=O)O (some centres unmarked) (natGa complex, metal not drawn) [[Ga]42] | 17.97 kDa | −2.41 ± 0.05 | 5.33 ± 0.78 nM |
| C[C@@H](O)[C@H](NC(=O)C1CSSCC(NC(=O)C(Cc2ccccc2)NC(=O)CNC(=O)CNC(=O)[C@@H](CC(N)=O)NC(=O)C(CC(N)=O)NC(=O)[C@@H](CNC(=O)CC[C@H](C(=O)O)N2CCN(CC(=O)O)CCN(CC(=O)O)CCN(CC(=O)O)CC2)NC(=O)C(CN)NC(=O)c2ccc([Si](F)(C(C)(C)C)C(C)(C)C)cc2)C(=O)N[C@@H](Cc2ccc(O)cc2)C(=O)NC(Cc2c[nH]c3ccccc23)C(=O)N[C@@H](CCCCN)C(=O)N[C@@H]([C@@H](C)O)C(=O)N1)C(=O)O (some centres unmarked) (natGa complex, metal not drawn) [[Ga]41] | 15.48 kDa | −1.58 ± 0.05 | 3.64 ± 0.64 nM |
| C[C@@H](O)[C@H](NC(=O)C1CSSCC(NC(=O)C(Cc2ccccc2)NC(=O)CNC(=O)CNC(=O)[C@@H](CC(=O)O)NC(=O)C(CC(=O)O)NC(=O)[C@@H](CNC(=O)CN2CCN(CC(N)=O)CCN(CC(N)=O)CCN(CC(N)=O)CC2)NC(=O)C[N+](C)(C)Cc2ccc([Si](F)(C(C)(C)C)C(C)(C)C)cc2)C(=O)N[C@@H](Cc2ccc(O)cc2)C(=O)NC(Cc2c[nH]c3ccccc23)C(=O)N[C@@H](CCCCN)C(=O)N[C@@H]([C@@H](C)O)C(=O)N1)C(=O)O (some centres unmarked) [[Pb]38] (X1-[dDap](DO3AM)[ξD][dD]GG[ξF][ξC]Y[ξW]KT[ξC]T-OH; disulfide 7-12) | 9.20 kDa | −1.95 ± 0.03 | 4.67 ± 0.73 nM |
| C[C@@H](O)[C@H](NC(=O)C1CSSCC(NC(=O)C(Cc2ccccc2)NC(=O)CNC(=O)CNC(=O)[C@@H](CCCN)NC(=O)C(CCCN)NC(=O)[C@@H](CNC(=O)CC[C@H](C(=O)O)N2CCN(CC(=O)O)CCN(CC(=O)O)CCN(CC(=O)O)CC2)NC(=O)C(CN)NC(=O)c2ccc([Si](F)(C(C)(C)C)C(C)(C)C)cc2)C(=O)N[C@@H](Cc2ccc(O)cc2)C(=O)NC(Cc2c[nH]c3ccccc23)C(=O)N[C@@H](CCCCN)C(=O)N[C@@H]([C@@H](C)O)C(=O)N1)C(=O)O (some centres unmarked) (natGa complex, metal not drawn) [[Ga]37] | 17.60 kDa | −1.92 ± 0.04 | 4.66 ± 0.53 nM |
| C[C@@H](O)[C@H](NC(=O)C1CSSCC(NC(=O)C(Cc2ccccc2)NC(=O)CNC(=O)CNC(=O)CNC(=O)C(CC(=O)O)NC(=O)[C@@H](CC(=O)O)NC(=O)C(CNC(=O)CN2CCN(CC(=O)O)CCN(CC(=O)O)CCN(CC(=O)O)CC2)NC(=O)[C@@H](CN)NC(=O)c2ccc([Si](F)(C(C)(C)C)C(C)(C)C)cc2)C(=O)N[C@@H](Cc2ccc(O)cc2)C(=O)NC(Cc2c[nH]c3ccccc23)C(=O)N[C@@H](CCCCN)C(=O)N[C@@H]([C@@H](C)O)C(=O)N1)C(=O)O (some centres unmarked) (natGa complex, metal not drawn) [[Ga]40] | 19.25 kDa | −2.24 ± 0.03 | 3.61 ± 0.29 nM |
| C[C@@H](O)[C@H](NC(=O)C1CSSCC(NC(=O)C(Cc2ccccc2)NC(=O)CNC(=O)CNC(=O)[C@@H](CC(=O)O)NC(=O)C(CC(=O)O)NC(=O)[C@@H](CNC(=O)CC[C@H](C(=O)O)N2CCN(CC(=O)O)CCN(CC(=O)O)CCN(CC(=O)O)CC2)NC(=O)C(CN)NC(=O)c2ccc([Si](F)(C(C)(C)C)C(C)(C)C)cc2)C(=O)N[C@@H](Cc2ccc(O)cc2)C(=O)NC(Cc2c[nH]c3ccccc23)C(=O)N[C@@H](CCCCN)C(=O)N[C@@H]([C@@H](C)O)C(=O)N1)C(=O)O (some centres unmarked) [[Ga]20] | 21.49 kDa | −2.16 ± 0.04 | – |
| C[C@@H](O)[C@H](NC(=O)C1CSSCC(NC(=O)C(Cc2ccccc2)NC(=O)CNC(=O)CNC(=O)CNC(=O)C(CC(=O)O)NC(=O)[C@@H](CC(=O)O)NC(=O)C(CNC(=O)CN2CCN(CC(=O)O)CCN(CC(=O)O)CCN(CC(=O)O)CC2)NC(=O)[C@@H](CN)NC(=O)CNC(=O)CNC(=O)C[N+](C)(C)Cc2ccc([Si](F)(C(C)(C)C)C(C)(C)C)cc2)C(=O)N[C@@H](Cc2ccc(O)cc2)C(=O)NC(Cc2c[nH]c3ccccc23)C(=O)N[C@@H](CCCCN)C(=O)N[C@@H]([C@@H](C)O)C(=O)N1)C(=O)O (some centres unmarked) [[Ga]53] | 8.48 kDa | −1.96 ± 0.01 | – |
| C[C@@H](O)[C@H](NC(=O)C1CSSCC(NC(=O)C(Cc2ccccc2)NC(=O)CNC(=O)CNC(=O)CNC(=O)C(CC(=O)O)NC(=O)[C@@H](CC(=O)O)NC(=O)C(CCCNC(N)=O)NC(=O)[C@@H](CNC(=O)C[N+](C)(C)Cc2ccc([Si](F)(C(C)(C)C)C(C)(C)C)cc2)NC(=O)CN2CCN(CC(=O)O)CCN(CC(=O)O)CCN(CC(=O)O)CC2)C(=O)N[C@@H](Cc2ccc(O)cc2)C(=O)NC(Cc2c[nH]c3ccccc23)C(=O)N[C@@H](CCCCN)C(=O)N[C@@H]([C@@H](C)O)C(=O)N1)C(=O)O (some centres unmarked) [[Ga]46] | 6.81 kDa | −2.22 ± 0.03 | – |
| C[C@@H](O)[C@H](NC(=O)C1CSSCC(NC(=O)C(Cc2ccccc2)NC(=O)CNC(=O)CNC(=O)CNC(=O)C(CC(=O)O)NC(=O)[C@@H](CC(=O)O)NC(=O)C(CCCCN)NC(=O)[C@@H](CNC(=O)C[N+](C)(C)Cc2ccc([Si](F)(C(C)(C)C)C(C)(C)C)cc2)NC(=O)CN2CCN(CC(=O)O)CCN(CC(=O)O)CCN(CC(=O)O)CC2)C(=O)N[C@@H](Cc2ccc(O)cc2)C(=O)NC(Cc2c[nH]c3ccccc23)C(=O)N[C@@H](CCCCN)C(=O)N[C@@H]([C@@H](C)O)C(=O)N1)C(=O)O (some centres unmarked) [[Ga]45] | 7.76 kDa | −2.10 ± 0.04 | – |
| C[C@@H](O)[C@H](NC(=O)C1CSSCC(NC(=O)C(Cc2ccccc2)NC(=O)CNC(=O)CNC(=O)CNC(=O)C(CC(=O)O)NC(=O)[C@@H](CC(=O)O)NC(=O)C(CNC(=O)C[N+](C)(C)Cc2ccc([Si](F)(C(C)(C)C)C(C)(C)C)cc2)NC(=O)CN2CCN(CC(=O)O)CCN(CC(=O)O)CCN(CC(=O)O)CC2)C(=O)N[C@@H](Cc2ccc(O)cc2)C(=O)NC(Cc2c[nH]c3ccccc23)C(=O)N[C@@H](CCCCN)C(=O)N[C@@H]([C@@H](C)O)C(=O)N1)C(=O)O (some centres unmarked) [[Ga]44] | 6.99 kDa | −2.06 ± 0.08 | – |
| C[C@@H](O)[C@H](NC(=O)C1CSSCC(NC(=O)C(Cc2ccccc2)NC(=O)CNC(=O)CNC(=O)CNC(=O)C(CC(=O)O)NC(=O)[C@@H](CC(=O)O)NC(=O)C(CNC(=O)CN2CCN(CC(=O)O)CCN(CC(=O)O)CCN(CC(=O)O)CC2)NC(=O)[C@@H](CN)NC(=O)C[N+](C)(C)Cc2ccc([Si](F)(C(C)(C)C)C(C)(C)C)cc2)C(=O)N[C@@H](Cc2ccc(O)cc2)C(=O)NC(Cc2c[nH]c3ccccc23)C(=O)N[C@@H](CCCCN)C(=O)N[C@@H]([C@@H](C)O)C(=O)N1)C(=O)O (some centres unmarked) [[Ga]51] | 8.71 kDa | −1.97 ± 0.01 | – |
| C[C@@H](O)[C@H](NC(=O)C1CSSCC(NC(=O)C(Cc2ccccc2)NC(=O)COCCOCCNC(=O)C(CC(=O)O)NC(=O)[C@@H](CC(=O)O)NC(=O)C(CNC(=O)CN2CCN(CC(=O)O)CCN(CC(=O)O)CCN(CC(=O)O)CC2)NC(=O)[C@@H](CN)NC(=O)c2ccc([Si](F)(C(C)(C)C)C(C)(C)C)cc2)C(=O)N[C@@H](Cc2ccc(O)cc2)C(=O)NC(Cc2c[nH]c3ccccc23)C(=O)N[C@@H](CCCCN)C(=O)N[C@@H]([C@@H](C)O)C(=O)N1)C(=O)O (some centres unmarked) (natGa complex, metal not drawn) [[Ga]23] | 18.59 kDa | −1.86 ± 0.06 | – |
